Reference: PubChem BioAssay AID264 (DTP/NCI, 2004)
Values joined by “and” are separate entries in the source; they are usually repeats but may differ in a detail not shown here. Equal values may be shown once. Results filed as inconclusive are left out.

Tested on: nude mice, LX-1 lung xenograft intrarenal, tumor weight T/C
Experiment: NCI In Vivo Anticancer Drug Screen. Data for tumor model Human Lung LX-1 Xenograft (intrarenal inoculation) in NU/NU Swiss (nude) mice
Conditions: endpoint: mean tumor weight change, higher = larger tumour
Method in brief: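 Compound-treated mice carrying transplanted tumors were compared with vehicle-treated controls. Tumor size was the measured end point, and the value is the treated-group measurement divided by the control-group measurement (T/C).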

[1] = dose: 150.0 mg/kg/injection, schedule: Q04DX003 (sc), vehicle: suspension in saline
[2] = dose: 300.0 mg/kg/injection, schedule: Q04DX003 (sc), vehicle: suspension in saline
[3] = dose: 600.0 mg/kg/injection, schedule: Q04DX003 (sc), vehicle: suspension in saline
[4] = dose: 100.0 mg/kg/injection, schedule: Q04DX003 (sc), vehicle: saline with Tween-80
[5] = dose: 100.0 mg/kg/injection, schedule: Q01DX010 (sc), vehicle: saline
[6] = dose: 400.0 mg/kg/injection, schedule: Q04DX003 (sc), vehicle: saline with Tween-80
[7] = dose: 800.0 mg/kg/injection, schedule: Q04DX003 (sc), vehicle: saline with Tween-80

## CC1=C(C)C(=O)O[C@@H]([C@](C)(O)[C@]2(O)CC[C@@]3(O)[C@@H]4C[C@H]5O[C@]56CC=CC(=O)[C@]6(C)[C@H]4CC[C@]23C)C1
[1]
  T/C: 112 % of control
[2]
  T/C: 84 % of control
[3]
  T/C: 46 % of control
dose: 1200.0 mg/kg/injection, schedule: Q04DX003 (sc), vehicle: suspension in saline
  T/C: 81 % of control

## Nc1nc(N)c2c(ccc3c2ccn3Cc2cccc([N+](=O)[O-])c2)n1
dose: 37.5 mg/kg/injection, schedule: Q04DX003 (sc), vehicle: saline with Tween-80
  T/C: 100 % of control
dose: 75.0 mg/kg/injection, schedule: Q04DX003 (sc), vehicle: saline with Tween-80
  T/C: 69 % of control
dose: 150.0 mg/kg/injection, schedule: Q04DX003 (sc), vehicle: saline with Tween-80
  T/C: 50 % of control

## CC(C)NC(=O)OCc1c(COC(=O)NC(C)C)c(-c2ccc(Cl)c(Cl)c2)n2c1CCC2
dose: 25.0 mg/kg/injection, schedule: Q01DX010 (sc), vehicle: distilled water + Tween-80
  T/C: 27 % of control
dose: 200.0 mg/kg/injection, schedule: Q04DX003 (sc), vehicle: distilled water + Tween-80
  T/C: 68 % of control
dose: 400.0 mg/kg/injection, schedule: Q04DX003 (sc), vehicle: distilled water + Tween-80
  T/C: 50 % of control
dose: 800.0 mg/kg/injection, schedule: Q04DX003 (sc), vehicle: distilled water + Tween-80
  T/C: 40 % of control
dose: 1600.0 mg/kg/injection, schedule: Q04DX003 (sc), vehicle: distilled water + Tween-80
  T/C: 90 % of control

## Cc1nc(N)nc(N)c1-c1ccc(Cl)c(Cl)c1
dose: 0.16 mg/kg/injection, schedule: Q01DX010 (sc), vehicle: saline
  T/C: 85 % of control
dose: 0.32 mg/kg/injection, schedule: Q01DX010 (sc), vehicle: saline
  T/C: 111 % of control
dose: 0.63 mg/kg/injection, schedule: Q01DX010 (sc), vehicle: saline
  T/C: 115 % of control
dose: 1.25 mg/kg/injection, schedule: Q01DX010 (sc), vehicle: saline
  T/C: 106 % of control

## O=C(Nc1cccc2c(OC(=O)C(Cl)Cl)c(N=Nc3ccc(S(=O)(=O)Nc4nccs4)cc3)cc(N=Nc3ccc(S(=O)(=O)Nc4nccs4)cc3)c12)C(Cl)Cl (tested in a mixture with another compound)
dose: 25.0 mg/kg/injection, schedule: Q04DX003 (sc), vehicle: saline with Tween-80
  T/C: 104 % of control
dose: 50.0 mg/kg/injection, schedule: Q04DX003 (sc), vehicle: saline with Tween-80
  T/C: 92 % of control
[4]
  T/C: 116 % of control
dose: 300.0 mg/kg/injection, schedule: Q04DX003 (sc), vehicle: saline with Tween-80
  T/C: 90 % of control
dose: 600.0 mg/kg/injection, schedule: Q04DX003 (sc), vehicle: saline with Tween-80
  T/C: 120 % of control
dose: 1200.0 mg/kg/injection, schedule: Q04DX003 (sc), vehicle: saline with Tween-80
  T/C: 83 % of control
dose: 2400.0 mg/kg/injection, schedule: Q04DX003 (sc), vehicle: saline with Tween-80
  T/C: 120 % of control

## NC(=O)c1ncn2c(=O)n(CCCl)nnc12
dose: 12.5 mg/kg/injection, schedule: Q04DX003 (sc), vehicle: saline
  T/C: 56 % of control and 64 % of control
dose: 12.5 mg/kg/injection, schedule: Q04DX003 (sc), vehicle: suspension in saline
  T/C: 80 % of control
dose: 25.0 mg/kg/injection, schedule: Q04DX003 (sc), vehicle: saline
  T/C: 23 % of control and 40 % of control
dose: 25.0 mg/kg/injection, schedule: Q04DX003 (sc), vehicle: suspension in saline
  T/C: 49 % of control
dose: 50.0 mg/kg/injection, schedule: Q04DX003 (sc), vehicle: saline
  T/C: 3 % of control and 19 % of control
dose: 50.0 mg/kg/injection, schedule: Q04DX003 (sc), vehicle: suspension in saline
  T/C: 18 % of control
dose: 100.0 mg/kg/injection, schedule: Q04DX003 (sc), vehicle: saline
  T/C: 7 % of control

## C[PH+](C)C.C[PH+](C)C.[Au]
dose: 5.0 mg/kg/injection, schedule: Q04DX003 (sc), vehicle: suspension in saline
  T/C: 111 % of control
dose: 10.0 mg/kg/injection, schedule: Q04DX003 (sc), vehicle: suspension in saline
  T/C: 118 % of control
dose: 20.0 mg/kg/injection, schedule: Q04DX003 (sc), vehicle: suspension in saline
  T/C: 76 % of control

## CN(CO)c1nc(N(C)CO)nc(N(C)CO)n1
dose: 25.0 mg/kg/injection, schedule: Q01DX010 (sc), vehicle: saline
  T/C: 92 % of control
dose: 50.0 mg/kg/injection, schedule: Q01DX010 (sc), vehicle: saline
  T/C: 57 % of control
[5]
  T/C: 49 % of control

## O=c1[nH]cnc2n[nH]nc12
dose: 300.0 mg/kg/injection, schedule: Q04DX003 (sc), vehicle: Klucel (hydroxypropylcellulose) (HPC)
  T/C: 100 % of control
dose: 600.0 mg/kg/injection, schedule: Q04DX003 (sc), vehicle: Klucel (hydroxypropylcellulose) (HPC)
  T/C: 92 % of control
dose: 1200.0 mg/kg/injection, schedule: Q04DX003 (sc), vehicle: Klucel (hydroxypropylcellulose) (HPC)
  T/C: 35 % of control
dose: 2400.0 mg/kg/injection, schedule: Q04DX003 (sc), vehicle: Klucel (hydroxypropylcellulose) (HPC)
  T/C: 27 % of control

## CN(Cc1cnc2nc(N)nc(N)c2n1)c1c(Cl)cc(C(=O)NC(CCC(=O)O)C(=O)O)cc1Cl (stereo unspecified)
dose: 12.5 mg/kg/injection, schedule: Q01DX010 (sc), vehicle: Klucel (hydroxypropylcellulose) (HPC)
  T/C: 73 % of control
dose: 25.0 mg/kg/injection, schedule: Q01DX010 (sc), vehicle: Klucel (hydroxypropylcellulose) (HPC)
  T/C: 48 % of control
dose: 50.0 mg/kg/injection, schedule: Q01DX010 (sc), vehicle: Klucel (hydroxypropylcellulose) (HPC)
  T/C: 45 % of control

## ClCCCCCCCCCCc1ccccc1
dose: 100.0 mg/kg/injection, schedule: Q01DX010 (sc), vehicle: Klucel (hydroxypropylcellulose) (HPC)
  T/C: 260 % of control
dose: 200.0 mg/kg/injection, schedule: Q01DX010 (sc), vehicle: Klucel (hydroxypropylcellulose) (HPC)
  T/C: 94 % of control
dose: 400.0 mg/kg/injection, schedule: Q01DX010 (sc), vehicle: Klucel (hydroxypropylcellulose) (HPC)
  T/C: 71 % of control
dose: 800.0 mg/kg/injection, schedule: Q01DX010 (sc), vehicle: Klucel (hydroxypropylcellulose) (HPC)
  T/C: 52 % of control

## O=C1NC(=O)C2C3C=CC(C12)C1C2C(=O)NC(=O)C2C31 (stereo unspecified)
[4]
  T/C: 123 % of control
[6]
  T/C: 84 % of control
[7]
  T/C: 75 % of control
dose: 1600.0 mg/kg/injection, schedule: Q04DX003 (sc), vehicle: saline with Tween-80
  T/C: 105 % of control

## CC1C=NNC1=O (stereo unspecified)
dose: 100.0 mg/kg/injection, schedule: Q01DX010 (sc), vehicle: saline with Tween-80
  T/C: 97 % of control
dose: 200.0 mg/kg/injection, schedule: Q01DX010 (sc), vehicle: saline with Tween-80
  T/C: 270 % of control
dose: 400.0 mg/kg/injection, schedule: Q01DX010 (sc), vehicle: saline with Tween-80
  T/C: 82 % of control

## O=c1[nH]cnc2[nH]ncc12
[1]
  T/C: 88 % of control
[2]
  T/C: 100 % of control
[3]
  T/C: 61 % of control

## O=Cc1ccc(O)c(O)c1
[4]
  T/C: 172 % of control
dose: 200.0 mg/kg/injection, schedule: Q04DX003 (sc), vehicle: saline with Tween-80
  T/C: 100 % of control
[6]
  T/C: 86 % of control
[7]
  T/C: 73 % of control

## CC(=O)OC1COC(NC(=O)N(CCCl)N=O)C(OC(C)=O)C1OC(C)=O (stereo unspecified)
dose: 1.5 mg/kg/injection, schedule: Q01DX010 (sc), vehicle: saline with Tween-80
  T/C: 83 % of control
dose: 3.0 mg/kg/injection, schedule: Q01DX010 (sc), vehicle: saline with Tween-80
  T/C: 71 % of control
dose: 6.0 mg/kg/injection, schedule: Q01DX010 (sc), vehicle: saline with Tween-80
  T/C: 60 % of control
dose: 12.0 mg/kg/injection, schedule: Q01DX010 (sc), vehicle: saline with Tween-80
  T/C: 72 % of control

## CN1CCN(CCCN2c3ccccc3Sc3ccc(C(F)(F)F)cc32)CC1
dose: 6.25 mg/kg/injection, schedule: Q01DX010 (sc), vehicle: saline
  T/C: 97 % of control
dose: 12.5 mg/kg/injection, schedule: Q01DX010 (sc), vehicle: saline
  T/C: 124 % of control
[5]
  T/C: 63 % of control and 66 % of control and 87 % of control
dose: 400.0 mg/kg/injection, schedule: Q01DX010 (sc), vehicle: saline
  T/C: 31 % of control

## [N-]=[N+]=CC(=O)CCC(N)C(=O)O (stereo unspecified)
dose: 0.05 mg/kg/injection, schedule: Q01DX010 (sc), vehicle: saline
  T/C: 91 % of control
dose: 0.37 mg/kg/injection, schedule: Q01DX010 (sc), vehicle: saline
  T/C: 12 % of control
dose: 0.75 mg/kg/injection, schedule: Q01DX010 (sc), vehicle: saline
  T/C: -28 % of control

## CC1=CC2C(O)(CC(CO)=CC3C4C(C)(C)C4(OC(=O)c4ccccc4)C(OC(=O)c4ccccc4)C(C)C32O)C1=O (stereo unspecified)
dose: 1.25 mg/kg/injection, schedule: Q04DX003 (sc), vehicle: saline with Tween-80
  T/C: 77 % of control
dose: 2.5 mg/kg/injection, schedule: Q04DX003 (sc), vehicle: saline with Tween-80
  T/C: 73 % of control
dose: 5.0 mg/kg/injection, schedule: Q04DX003 (sc), vehicle: saline with Tween-80
  T/C: 76 % of control
dose: 10.0 mg/kg/injection, schedule: Q04DX003 (sc), vehicle: saline with Tween-80
  T/C: 43 % of control
